From ChEMBL document CHEMBL3822408, “Synthesis and antimicrobial evaluation of novel ethyl 2-(2-(4-substituted)acetamido)-4-subtituted-thiazole-5-carboxylate derivatives” (2016)
In brackets after ≈: the same amount, converted by molar mass.

Key:
Format in all cases: functional
Candida albicans = experiment: Antifungal activity against Candida albicans by broth dilution method
Aspergillus niger = experiment: Antifungal activity against Aspergillus niger by broth dilution method
Staphylococcus aureus = experiment: Antibacterial activity against Staphylococcus aureus NCIM 2901 by broth dilution method
Bacillus subtilis = experiment: Antibacterial activity against Bacillus subtilis NCIM 2063 by broth dilution method
Escherichia coli = experiment: Antibacterial activity against Escherichia coli NCIM 2256 by broth dilution method
Aspergillus flavus = experiment: Antifungal activity against Aspergillus flavus by broth dilution method

Structure (SMILES) | MIC (Candida albicans) | MIC (Aspergillus niger) | MIC (Staphylococcus aureus) | MIC (Bacillus subtilis) | MIC (Escherichia coli) | MIC (Aspergillus flavus)
CCOC(=O)c1sc(NC(=O)CN2CCC(Cc3ccccc3)CC2)nc1CC | 75 µg/mL (≈ 180 µM) | 100 µg/mL (≈ 241 µM) | 100 µg/mL (≈ 241 µM) | 40 µg/mL (≈ 96.3 µM) | 100 µg/mL (≈ 241 µM) | 100 µg/mL (≈ 241 µM)
CCOC(=O)c1cnc(NC(=O)CN2CCC(Cc3ccccc3)CC2)s1 | 25 µg/mL (≈ 64.5 µM) | 12.5 µg/mL (≈ 32.3 µM) | 28 µg/mL (≈ 72.3 µM) | 29 µg/mL (≈ 74.8 µM) | 29 µg/mL (≈ 74.8 µM) | 12.5 µg/mL (≈ 32.3 µM)
Cc1nc(NC(=O)CN2CCC(Cc3ccccc3)CC2)sc1C | 25 µg/mL (≈ 72.8 µM) | 12.5 µg/mL (≈ 36.4 µM) | 30 µg/mL (≈ 87.3 µM) | 28 µg/mL (≈ 81.5 µM) | 29 µg/mL (≈ 84.4 µM) | 12.5 µg/mL (≈ 36.4 µM)
C[C@H]1COc2c(N3CCN(C)CC3)c(F)cc3c(=O)c(C(=O)O)cn1c23.C[C@H]1COc2c(N3CCN(C)CC3)c(F)cc3c(=O)c(C(=O)O)cn1c23.O [LEVOFLOXACIN] |  |  | 28 µg/mL | 29 µg/mL | 29 µg/mL | 
CCOC(=O)c1sc(NC(=O)CN2CCC(Cc3ccccc3)CC2)nc1-c1ccccc1 | 50 µg/mL (≈ 108 µM) | 25 µg/mL (≈ 53.9 µM) | 28 µg/mL (≈ 60.4 µM) | 25 µg/mL (≈ 53.9 µM) | 29 µg/mL (≈ 62.6 µM) | 25 µg/mL (≈ 53.9 µM)
COC(=O)c1sc(NC(=O)CN2CCC(Cc3ccccc3)CC2)nc1C1CC1 | 25 µg/mL (≈ 60.5 µM) | 12.5 µg/mL (≈ 30.2 µM) | 28 µg/mL (≈ 67.7 µM) | 29 µg/mL (≈ 70.1 µM) | 29 µg/mL (≈ 70.1 µM) | 12.5 µg/mL (≈ 30.2 µM)
CCOC(=O)c1sc(NC(=O)CN2CCC(C)CC2)nc1C | 75 µg/mL (≈ 230 µM) | 50 µg/mL (≈ 154 µM) | 70 µg/mL (≈ 215 µM) | 35 µg/mL (≈ 108 µM) | 50 µg/mL (≈ 154 µM) | 50 µg/mL (≈ 154 µM)
CCOC(=O)c1sc(NC(=O)CN2CCCCC2)nc1C | 75 µg/mL (≈ 241 µM) | 100 µg/mL (≈ 321 µM) | 100 µg/mL (≈ 321 µM) | 45 µg/mL (≈ 145 µM) | 60 µg/mL (≈ 193 µM) | 100 µg/mL (≈ 321 µM)
Clc1ccc(COC(Cn2ccnc2)c2ccc(Cl)cc2Cl)c(Cl)c1 (stereo unspecified) [MICONAZOLE] | 12.5 µg/mL (≈ 30 µM) | 12.5 µg/mL (≈ 30 µM) |  |  |  | 12.5 µg/mL (≈ 30 µM)
Cc1csc(NC(=O)CN2CCC(Cc3ccccc3)CC2)n1 | 75 µg/mL (≈ 228 µM) | 50 µg/mL (≈ 152 µM) | 70 µg/mL (≈ 212 µM) | 35 µg/mL (≈ 106 µM) | 50 µg/mL (≈ 152 µM) | 50 µg/mL (≈ 152 µM)
CC(=O)c1sc(NC(=O)CN2CCC(Cc3ccccc3)CC2)nc1C | 100 µg/mL (≈ 269 µM) | 50 µg/mL (≈ 135 µM) | 50 µg/mL (≈ 135 µM) | 35 µg/mL (≈ 94.2 µM) | 60 µg/mL (≈ 162 µM) | 50 µg/mL (≈ 135 µM)
CCOC(=O)c1sc(NC(=O)CN2CCC(Cc3ccccc3)CC2)nc1C | 75 µg/mL (≈ 187 µM) | 50 µg/mL (≈ 125 µM) | 70 µg/mL (≈ 174 µM) | 35 µg/mL (≈ 87.2 µM) | 50 µg/mL (≈ 125 µM) | 50 µg/mL (≈ 125 µM)
OC(Cn1cncn1)(Cn1cncn1)c1ccc(F)cc1F [FLUCONAZOLE] | 40 µg/mL (≈ 131 µM) | 25 µg/mL (≈ 81.6 µM) |  |  |  | 25 µg/mL (≈ 81.6 µM)
CCOC(=O)c1sc(NC(=O)CN2CCC(c3ccccc3)CC2)nc1C | 25 µg/mL (≈ 64.5 µM) | 25 µg/mL (≈ 64.5 µM) | 30 µg/mL (≈ 77.4 µM) | 28 µg/mL (≈ 72.3 µM) | 29 µg/mL (≈ 74.8 µM) | 12.5 µg/mL (≈ 32.3 µM)
COC(=O)c1cnc(NC(=O)CN2CCC(Cc3ccccc3)CC2)s1 | 100 µg/mL (≈ 268 µM) | 50 µg/mL (≈ 134 µM) | 50 µg/mL (≈ 134 µM) | 35 µg/mL (≈ 93.7 µM) | 60 µg/mL (≈ 161 µM) | 50 µg/mL (≈ 134 µM)
